Drawing on patent publication US12279617B2, “Agricultural and horticultural chemical agent containing new imidazopyridine-2-carboxamide derivative as active ingredient” (AGRO-KANESHO CO., LTD., priority 2019, dated 2025), this text covers insecticidal rate and control rate for 20 compounds.

Format in all cases: in vivo
Assay [1] deals with Spodoptera litura (Fabricius). Briefly: Larvicide test for Spodoptera litura (Fabricius). As to conditions: 500 ppm emulsion agent; artificial feed immersed about 60 seconds; 7 days after insect release; 25° C.; agony insects counted as dead. From the text: A water diluted solution of an emulsion agent (500 ppm) prepared as in Formulation Example 1 was put in a 120-mL polyethylene cup, and artificial feed Insecta LF (Nosan Corporation, diameter: 5 cm) sliced into 5 mm thickness and cut into ¼ was immersed in the polyethylene cup for about 60 seconds. After the immersion treatment, the resultant artificial feed piece was put in another 120-mL polyethylene cup (diameter: 8 cm, height: 4 cm) with filter paper (diameter: 55 mm) on the bottom together with test insects, and the cup was covered with a lid and was then kept in a thermostat chamber of 25° C. Seven days after the insect release, the life-and-death and the agony of the larvae were investigated, and the insecticidal rate (%) when agony insects were included in dead insects was determined. Incidentally, the test was carried out by using one cup in each ward. Insecticidal rate (%)=[number of dead larvae)/(number of test larvae)]×100

Assay [2] deals with Aculops lycopersici Massee. Briefly: Adult-killing test for Aculops lycopersici Massee (tomato rust mites). The note with it: 500 ppm emulsion agent sprayed 2.0 mL per cup on tomato leaf disks; 3 days after treatment; 25° C.; scored on four scales (100, 80, 50, 0). From the text: A lid provided with a hole (diameter: about 5 mm) at the center was put on a 430-mL polyethylene cup containing water. Circular filter paper with a diameter of 6.5 cm which was cut such that a strip-shaped filter paper piece having a width of about 5 mm was formed was put on the lid, and the filter paper piece was inserted into the hole of the lid so that the tip of the piece extends downward from the hole and immersed in the water in the cup. Furthermore, absorbent cotton was put on the filter paper such that the water in the cup was always supplied to the absorbent cotton. Three leaf disks (1 cm×1 cm) of leaflets of tomato in the early stage of true leaf development were put on the absorbent cotton such that the back of the leaves in the disk form was on top, and small pieces of a leaf parasitized by tomato rust mites were inoculated on the leaves in the disk form. After 24 hours from the inoculation, the small pieces were removed, and the cup was placed in an acrylic cylinder having a height of 50 cm and a diameter of 10 cm. A water diluted solution of an emulsion agent (500 ppm) prepared as in Formulation Example 1 was sprayed in an amount of 2.0 mL per cup using an air brush. After the spraying, the cup was kept in a thermostat chamber of 25° C. Three days after the treatment, the control rate was evaluated on four scales: 100 (control rate: 100%), 80 (control rate: 99% to 80%), 50 (control rate: 79% to 50%), and 0 (control rate: less than 50%), and the next-generation density suppression rate was calculated based on the results by the following equation. Incidentally, the test was carried out by using one cup in each ward. Control rate=(A×100+B×80+C×50)/(A+B+C+D) A: the number of disks for 100, B: the number for disks of 80, C: the number for disks of 50, D: the number of disks for 0.

For assay [3], the system named is Plutella xylostella. As to the kind of experiment: Insecticidal effect test for Plutella xylostella of Chinese cabbage. The note with it: 500 ppm emulsion agent sprayed on Chinese cabbage seedlings; 3rd instar larvae; 5 days after insect release; 25° C.; agony insects counted as dead. As for the experimental part: A sufficient amount of a water diluted solution of an emulsion agent (500 ppm) prepared as in Formulation Example 1 was sprayed with an air brush to the leaves of Chinese cabbage seedlings planted in pots raised for 2 weeks after sowing. The liquid agent was air dried, and five 3rd instar larvae of Plutella xylostella were then inoculated per pot and were kept in a thermostat chamber of 25° C. Five days after the insect release, the life-and-death and the agony of the larvae were investigated, and the insecticidal rate (%) when agony insects were included in dead insects was determined. Incidentally, the test was carried out by using one seedling in each ward. Insecticidal rate (%)=[number of dead larvae)/(number of test larvae)]×100

As to `CCOCN(C(=O)c1nc2ccc(C(F)(F)F)cn2c1SCC)c1ccc(SC(F)(F)F)cc1` [A-70], the insecticidal rate in assay [1] and in assay [3] was 100% throughout. Further, the control rate in assay [2] turned out to be 100%.

As for `CCOCN(C(=O)c1nc2ccc(C(F)(F)F)cn2c1S(=O)(=O)CC)c1ccc(C(F)(F)F)cn1` [A-96], the insecticidal rate in assay [1] and in assay [3] was 100% in each case. This compound yielded a control rate in assay [2] of 100%.

As for `CCOCN(C(=O)c1nc2ccc(C(F)(F)F)cn2c1SCC)c1ccc(C(F)(F)F)nc1` [A-91], the insecticidal rate in assay [1] and in assay [3] was 100% each time.

With `CCOCN(C(=O)c1nc2cc(C(F)(F)F)ccn2c1[S+]([O-])CC)c1ccc(C(F)(F)F)cc1` (stereo not drawn) [A-20], the insecticidal rate in assay [1] and in assay [3] was 100% each time.

As to `CCOCN(C(=O)c1nc2cc(C(F)(F)F)ccn2c1S(=O)(=O)CC)c1ccc(C(F)(F)F)cc1` [A-21], the insecticidal rate in assay [1] and in assay [3] was 100% throughout.

As to `CCOCN(C(=O)c1nc2ccc(Cl)cn2c1SCC)c1ccc(C(F)(F)F)cc1` [A-25], the insecticidal rate in assay [1] and in assay [3] was 100% in each case. In assay [2], this compound registered a control rate of 100%.

For `CCOCN(C(=O)c1nc2ccc(Cl)cn2c1S(=O)(=O)CC)c1ccc(C(F)(F)F)cc1` [A-27], the insecticidal rate in assay [1] and in assay [3] was 100% in each case. In assay [2], the control rate is 100%.

On to `CCOCN(C(=O)c1nc2ccc(C(F)(F)F)cn2c1S(=O)(=O)CC)c1ccc([S+]([O-])C(F)(F)F)cc1` (stereo not drawn) [A-75], for which the insecticidal rate in assay [1] and in assay [3] was 100% in each case. In assay [2], this compound yielded a control rate of 100%.

Regarding `CC[S+]([O-])c1c(C(=O)N(COC)c2ccc(C(F)(F)F)cc2)nc2ccc(C(F)(F)F)cn12` (stereo not drawn) [A-14, N-(methoxymethyl)-N-{4-(trifluoromethyl)phenyl}-3-(ethylsulfinyl)-6-(trifluoromethyl)imidazo[1,2-a]pyridine-2-carboxamide], the insecticidal rate in assay [1] and in assay [3] was 100% throughout. This compound also came in with a control rate in assay [2] of 100%.

In turn, `CCOCN(C(=O)c1nc2ccc(C(F)(F)F)cn2c1SCC)c1ccccc1C(F)(F)F` [A-31] yielded an insecticidal rate in assay [3] of 100%.

Take `CCS(=O)(=O)c1c(C(=O)N(CS(C)(=O)=O)c2ccc(C(F)(F)F)cc2)nc2ccc(C(F)(F)F)cn12` [A-102]: the insecticidal rate in assay [1] and in assay [3] was 100% throughout. The compound further registered a control rate in assay [2] of 100%.

Take `CCOCN(C(=O)c1nc2ccc(C(F)(F)F)cn2c1S(=O)(=O)CC)c1ccccc1C(F)(F)F` [A-33]: the insecticidal rate in assay [1] and in assay [3] was 100% in each case. This compound showed a control rate in assay [2] of 100%.

Turning to `CCOCN(C(=O)c1nc2cccc(C(F)(F)F)n2c1S(=O)(=O)CC)c1ccc(C(F)(F)F)cc1` [A-18], the insecticidal rate in assay [1] and in assay [3] was 100% in each case.

For `CCS(=O)(=O)c1c(C(=O)N(CSC)c2ccc(C(F)(F)F)cc2)nc2ccc(C(F)(F)F)cn12` [A-99], the insecticidal rate in assay [1] and in assay [3] was 100% each time.

With `CCOCN(C(=O)Cc1ccncc1S(=O)(=O)CC)c1ccc(C(F)(F)F)cc1` [Compound B, reference compound], the values for the insecticidal rate in assay [1] and in assay [3] were 0% and 50%, respectively. Besides, the control rate in assay [2] is reported as 100%.

In the case of `CCOCN(C(=O)c1nc2c(C(F)(F)F)cccn2c1SCC)c1ccc(C(F)(F)F)cc1` [A-22], the insecticidal rate in assay [1] and in assay [3] was 100% each time.

As to `CCSc1c(C(=O)N(COC)c2ccc(C(F)(F)F)cc2)nc2ccc(C(F)(F)F)cn12` [A-13, N-(methoxymethyl)-N-{4-(trifluoromethyl)phenyl}-3-(ethylthio)-6-(trifluoromethyl)imidazo[1,2-a]pyridine-2-carboxamide], the insecticidal rate in assay [1] and in assay [3] was 100% in each case.

With `CCS(=O)(=O)c1c(C(=O)N(C)c2ccc(C(F)(F)F)cc2)nc2ccc(C(F)(F)F)cn12` [Compound A, reference compound], the insecticidal rate in assay [1] and in assay [3] was 90% throughout. This compound came in with a control rate in assay [2] of 100%.

`CCOCN(C(=O)c1nc2ccc(C(F)(F)F)cn2c1S(=O)(=O)CC)c1ccc(SC(F)(F)F)cc1` [A-72]: the insecticidal rate in assay [1] and in assay [3] was 100% each time. In assay [2], the control rate turned out to be 100%.

With `CCS(=O)(=O)c1c(C(=O)N(COC)c2ccc(C(F)(F)F)cc2)nc2ccc(C(F)(F)F)cn12` [A-15, N-(methoxymethyl)-N-{4-(trifluoromethyl)phenyl}-3-(ethylsulfonyl)-6-(trifluoromethyl)imidazo[1,2-a]pyridine-2-carboxamide], the insecticidal rate in assay [1] and in assay [3] was 100% in each case. This compound also had a control rate in assay [2] of 100%.
